Experimental data taken from article PMC9161616, “A first-in-human phase 1/2 study of FGF401 and combination of FGF401 with spartalizumab in patients with hepatocellular carcinoma or biomarker-selected solid tumors” (Journal of Experimental & Clinical Cancer Research : CR, 2022).

Tested on: HCC or other solid tumors expressing FGFR4 and KLB
Assay: Antitumor activity per RECIST v1.1, FGF401 single agent
Type: in vivo, human
Text: The primary endpoint for the phase 1 parts was the incidence of DLTs evaluated. The probability of DLTs during the evaluation period was estimated for patients in the dose determining set (DDS) for each treatment arm, FGF401 single agent and FGF401 + spartalizumab combination, to estimate respective MTDs. DDS for the phase 1 single agent or combination comprised safety set patients who either experienced a DLT or had confirmation by both the sponsor and investigators that no DLT occurred during the first cycle, C1 (first 2 cycles: C1, C2) based on at least 66% of planned doses administered in C1 (C1 and C2) with a minimum of 21 (42) days of observation following the first dose. For phase 2, the primary efficacy endpoint to investigate the antitumor activity of FGF401 included time to tumor progression assessed in groups 1 and 2, and overall response rate (ORR) in group 3 based on local assessment per Response Evaluation Criteria in Solid Tumors (RECIST) v1.1.
Antitumor activity was locally assessed as per RECIST v1.1 and immune-related response criteria (irRC) (only for combination arm) and evaluated using the following endpoints: best overall response, overall response rate (ORR), disease control rate (DCR), time to tumor progression, and overall survival (OS). Estimation of best overall response (BOR) was based on assessments collected no later than 30 days after the last study treatment administration date for RECIST v1.1 and 150 days for irRC.
The primary and secondary efficacy outcomes were analyzed in the full analysis set according to the assigned treatment stratified by study group, which we defined as a subgroup (fast/fed, group 1/2/3) of patients who were administered with similar dose levels on a given treatment arm and phase. The results have been presented as per RECIST v1.1. The number of patients having BOR was provided along with ORR and DCR with 95% exact binomial CIs (Clopper-Pearson). Waterfall plots for the phase 1 parts depicted the best percentage change from baseline in sum of longest diameters (SOD). […] The estimate at a given time point was the estimated probability that a patient would remain event free up to that time point. A positive trend regarding the activity of FGF401 in groups 1 and 2 was concluded if the observed lower limit of their respective 90% CI was no less than their expected median TTPs of 1.5 months and 2.2 months estimated in the absence of FGF401. KM plots were also used to estimate OS rate with one-sided 95% CI at 3 months, 5 months, 7 months, and 9 months for single agent phase 1 overall and phase 2: groups 1, 2; for single agent phase 2 – group 3, OS, and progression free survival (PFS) were calculated regardless of RP2D but for overall tumor type.
Exploratory biomarker analyses were conducted using full analysis set to assess efficacy and FGF19 signaling inhibition associated with FGF401. The best tumor percentage change from baseline as per RECIST v1.1 were investigated by FGF19 status (positive/negative) as determined through RT-qPCR and IHC assay. An evaluable RT-qPCR sample was considered FGF19+ if mean threshold cycle for FGF19 was ≤35, and FGF19- otherwise. Among the patients with evaluable IHC assay samples, those who had % cellular positivity > 0 were considered FGF19 + .

[1] = single agent, phase I and phase II in total

Structure (SMILES): COCCNc1cc(NC(=O)N2CCCc3cc(CN4CCN(C)CC4=O)c(C=O)nc32)ncc1C#N [FGF401, roblitinib]
- median TTP (120 mg, phase 1, fed and fasted combined, N = 45): 2.63 months
- median OS (120 mg, phase 1, fed and fasted combined, n/N = 38/45): 5.72 months
- patients reporting PR at RP2D in phase 2 (all in patients with HCC): 4 patients
- response by FGF19 IHC status (patients with HCC, phase 1/2, 27 FGF19 positive, 33 negative): trend for better response among the FGF19 IHC-positive patients
- responses in patients with other tumor types (phase 1): no responses
- partial response (PR) (phase 1, 59 evaluable patients with HCC, 80 mg fasted, 80 mg fed, 150 mg fasted, each): 3 patients
- complete response (CR) (phase 1, 59 evaluable patients with HCC, 120 mg, fasted): 1 patient
- probability estimate of remaining event free (90% CI) at 9 months (phase 2 group 1): 30.4 [19.1, 100]
- PR (phase 2 group 1 (n = 28), 120 mg qd): 2 patients
- probability estimate of remaining event free (90% CI) at 9 months (phase 2 group 2): 61.5 (49.8, 100)
- PR (phase 2 group 2 (n = 31), 120 mg qd): 2 patients
- probability estimate of remaining event free (90% CI) at 9 months (phase 2 group 3): 24.7 [12.6, 100]
- CR [1]: 1 patients
- PR [1]: 7 patients
- patients with objective responses [1]: 8 patients
- association of FGF19 transcript level (RT-qPCR) with response (single-agent arm, prescreening biopsy): no clear association with response
